“Also recorded” adds a separate entry of the source.
Columns and labels:
soil borne bacteria = assay: Antibacterial assay on soil borne bacteria (six strains); format: cell-based; details: six bacterial strains / soil-borne pathogens tested
Procedure: (§1) Catechin and 2, 4-D were administered in MS basal medium at different concentration range (1-200 μg ml^−1) to check for the minimum inhibitory concentration (MIC). i) 10 μg ml^−1; ii) 60 μg ml^−1; iii) 100 μg ml^−1. • B) Effect of catechin on shoot and root differentiation in A. thaliana plants on the 14th day. Catechin was compared for phytoxicity against 2, 4-D and was administered at 100 μg ml^−1 concentration in MS basal medium (5 ml). Treatments were as follows: 1) Untreated control; 2) (+)-catechin; 3) (−)-catechin; 4) (±)-catechin; 5) (+/−) co-administered catechin; 6) (±) catechin isolated from root exudates of C. maculosa; 7) 2, 4-D. [Means of different letters at the top of each bar indicate significant difference (p<0.05) (SEM±52df)]. • C) Antibacterial activity of (+)-catechin on different bacterial strains. i) Tube antibacterial assay. 1) Control (without (+)-catechin); 2) (+)-catechin 100 μg ml^−1; 3) (+)-catechin 150 μg ml^−1; 4) (+)-catechin 200 μg ml^−1. Bacterial cultures were grown overnight at 24° C. in liquid LB media to an optical density of 0.2 at 600 nm. Different concentrations (100-200 μg ml^−1) of (+)-catechin were administered to the bacteria-containing LB media. Optical density at 600 nm was checked after 24 hrs of incubation to measure bacterial inhibition in tubes. Antibacterial activity was assayed on both tubes and 35 mm plates. ii) Antibacterial activity of (+)-catechin on Pseudomonas fluorescens analyzed in a petri dish assay. Treatments on petri dish refers to the following concentrations: 1) Methanol ((+)-catechin solvent) was used as a control; II) (−)-catechin (100 μg ml^−1); III) (+)-catechin (100 μg/ml); IV) (±)-catechin (200 μg ml^−1); V) (±)-catechin (200 μg ml^−1) isolated from root exudates of C. maculosa.
(§2) Antibacterial plate assay was performed on a bacterial culture grown overnight; both the enantiomers and the racemic catechin were added to the paper discs and allowed to dry under laminar hood conditions. […] Visual observations for inhibition zone were recorded after 24 hrs. […]

[1] = test system: Arabidopsis thaliana shoot cultures; assay: Phytotoxicity (MIC, shoot and root differentiation) on Arabidopsis thaliana in MS basal medium; format: in vivo; details: for minimum inhibitory concentration (MIC): Arabidopsis thaliana shoot cultures in vitro
Procedure: as §1
Root exudates of in vitro-grown C. maculosa plants were assayed for their effects on the phenotypic response and germnination efficiency of various weeds, including Linaria dalmatica (Dalmatian toadflax), Verbascum thapsus (common mullein), Bromos tectorum (downy brome), Kochia scoparia (kochia), Centaurea diffusa (diffuse knapweed), the model plant Arabidopsis thaliana and crops such as wheat (Triticum aestivum) and tomato (Lycopersicon esculentum). Ten day old seedlings and seeds of C. maculosa, L. dalmatica, V. thapsus, B. tectorum, K. scoparia, C. diffusa, A. thaliana, T. aestivum and L. esculetum were placed on MS basal medium in petri dishes after initial surface sterilization. Petri dishes were kept under a 16 hour light and 8 hour dark photoperiod in an incubator (Lab-Line). An additional objective was to check the effect of allelochemicals from C. maculosa on growth and differentiation of food crops such as Triticum aestivum (Wheat) and Lycopersicon esculetum (Tomato). This was of interest as wheat is known to produce an allelopathic effect in its root exudates (H. Wu, T. Haig, J. Prateley, D. Lemerle, M. An, J. Food Agric Chem. 48, 5321 (2000)). Root exudates collected from non-elicited and elicited cultures of C. maculosa were administered in different concentrations (1-3 ml v/v) over the surface sterilized seeds and seedlings to analyze their phytotoxic effects. […] After incubation, growth parameters such as length of shoots, number of shoots and length of primary root of the treated and untreated plants were measured. […]

[2] = test system: various weeds and crop plants; assay: Phytotoxic effect on seedlings of weeds and crop plants; format: in vivo; details: incl. C. diffusa
Procedure: (§3) Root exudates collected from non-elicited cultures of C. maculosa were administered in different concentrations (1-3 ml v/v) in the MS basal liquid media containing different seedlings to analyze phenotypic explant response. ii) Effect of fungal cell wall (CWE) elicited root exudates of C. maculosa on shoots and root differentiation of different weeds and crop plants on 14th day. Fungal cell wall extracts (CWE) from Phytophthora cinnamoni and Rhizoctonia solani were used. Data represents the percent inhibition as compared to the untreated control in shooting and rooting response in various tested seedlings against non-elicited and elicited root exudates of C. maculosa. The seedlings tested against C. maculosa exudates were as follows:1: C. maculosa; 2: L. dalmatica; 3: V. thapsus; 4: B. tectorum, 5: K. scoparia; 6: C. diffusa; 7: A. thaliana 8: T. aestivum; 9: L. esculentum. [Means of different letters at the top of each bar indicate significant difference (p<0.05) (SEM±52df)]. • B) Effect of purified HPLC-fraction from C. maculosa root exudates on morphological differentiation of various weeds and food crops. HPLC peaks were collected and administered into 5 ml MS basal medium at 100 μg ml^−1 concentration; fractions were added in different permutations. i) C. maculosa; ii) C. diffusa; iii) K scoparia; iv) L. dalmatica; v) A.thaliana; vi) T. aestivum. […]

C. maculosa = assay: Effect on C. maculosa itself (autotoxicity); format: in vivo, Centaurea maculosa; details: FIG. 1(b and c)
Procedure: as §3

[3] = test system: Agrobacterium rhizogenes (15834); assay: Tube antibacterial assay (OD 600 nm after 24 hrs); format: cell-based; details: even at higher concentrations
Procedure: as §1, §2

Xanthomonas campestris = assay: Tube antibacterial assay (OD 600 nm after 24 hrs); format: cell-based; details: 100-200 μg/ml
Procedure: as §1, §2

Erwinia carotovora = assay: Tube antibacterial assay (OD 600 nm after 24 hrs); format: cell-based; details: 100-200 μg/ml
Procedure: as §1, §2

Pseudomonas fluorescens = assay: Tube and plate antibacterial assay; format: cell-based; details: 100-200 μg/ml, 24 hrs
Procedure: Catechin and 2, 4-D were administered in MS basal medium at different concentration range (1-200 μg ml^−1) to check for the minimum inhibitory concentration (MIC). i) 10 μg ml^−1; ii) 60 μg ml^−1; iii) 100 μg ml^−1. • B) Effect of catechin on shoot and root differentiation in A. thaliana plants on the 14th day. Catechin was compared for phytoxicity against 2, 4-D and was administered at 100 μg ml^−1 concentration in MS basal medium (5 ml). Treatments were as follows: 1) Untreated control; 2) (+)-catechin; 3) (−)-catechin; 4) (±)-catechin; 5) (+/−) co-administered catechin; 6) (±) catechin isolated from root exudates of C. maculosa; 7) 2, 4-D. [Means of different letters at the top of each bar indicate significant difference (p<0.05) (SEM±52df)]. • C) Antibacterial activity of (+)-catechin on different bacterial strains. i) Tube antibacterial assay. […] Antibacterial activity was assayed on both tubes and 35 mm plates. ii) Antibacterial activity of (+)-catechin on Pseudomonas fluorescens analyzed in a petri dish assay. […]
as §2

(−)-catechin [(−)catechin]
antibacterial activity (soil borne bacteria): failed to show any antibacterial activity | antibacterial activity (soil borne bacteria; listed as (−)-catechin): does not show | doses accounting for the allelochemical activity (as low as) ([1]; A. thaliana, FIGS. 2 a, b): 50 to 60 µg/mL | spectrum of phytotoxicity / allelochemical activity [2]: broad-spectrum phytotoxicity

Oc1cc(O)c2c(c1)OC(c1ccc(O)c(O)c1)C(O)C2 (racemic) [(±)-catechin]
minimum inhibitory concentration (MIC) [1]: about 100 μg/ml | effect compared with root exudated (±)-catechin ([1]; commercially available racemate, FIG. 2(a and b)): same effect as root exudated (±)-catechin | resistance of C. maculosa (C. maculosa): strongly resistant

O=C(O)COc1ccc(Cl)cc1Cl [2,4-D, 2,4-dichlorophenoxyacetic acid, reference compound]
minimum inhibitory concentration (MIC) [1]: 10 µg/mL

Oc1cc(O)c2c(c1)O[C@H](c1ccc(O)c(O)c1)[C@@H](O)C2 [(+)-catechin]
antibacterial activity (soil borne bacteria): antibacterial activity against root infesting pathogens; also recorded: most showed a degree of inhibition | inhibition of growth [3]: not affected | inhibition of growth (decrease in optical density) (Xanthomonas campestris): distinct inhibition of growth | inhibition of growth (decrease in optical density) (Erwinia carotovora): distinct inhibition of growth | inhibition of growth (decrease in optical density) (Pseudomonas fluorescens): distinct inhibition of growth | allelochemical activity / phytotoxicity ([1]; A. thaliana, FIGS. 2 a, b): not phytotoxic; also recorded: did not show allelochemical activity
